The text below walks through data of patent publication US20230134986A1, “GLUCOSE TRIPTOLIDE CONJUGATES AND USES THEREOF” (The Johns Hopkins University, priority 2020, published 2023).

By IC50 is commonly meant the midpoint of a concentration-inhibition curve.

The conditions of data set [1]: cited from earlier work.
For another data set, the system named is PC3 cells. The data set is described as follows: PC3 proliferation under hypoxia or normoxia ([3H]-thymidine incorporation). Type of data set: cell-based, human. Particulars: hypoxia versus normoxia. The procedure: (§1) Proliferation and viability assays. [^3H]-thymidine incorporation. HEK293T cells (10,000 cells/well) were seeded into 96-well plates then cultured in DMEM plus 10% FBS and 1% penicillin/streptomycin at 37° C. with 5% CO2 overnight. Drugs were added at indicated concentrations and incubation was continued for an additional 24 h. For hypoxia, PC3 (5,000 cells/well) were exposed to 1% O2 (Airgas) in a humidified hypoxia chamber (Billups-Rothenberg) in 37° C. for 48 h prior to drug exposure for 48 h. Treated cells were then pulsed using an aliquot of 1 μCi of [^3H]-thymidine (Perkin Elmer) per well for an additional 6 h. Radiolabelled cells were harvested onto a printed Filtermat A glass fiber filter (Perkin Elmer) using a Tomtec Harvester 96 Mach III M. Betaplate Scint (Perkin Elmer) scintillation fluid was added to radiolabelled filters followed by scintillation counting on Microbeta2 LumiJET Microplate Counter (Perkin Elmer).
(Uptake of a labelled nucleoside into DNA is a usual measure of proliferation.)

A further data set concerns HEK 293T cells. The data set is described as follows: HEK293T cell proliferation assay ([3H]-thymidine incorporation). The class given is cell-based, human. The settings on record: Homo sapiens; anti-proliferative activity, HEK 293T cells, 24 h drug exposure; read-out: IC50 ± SEM.
Source text: Cells and culture conditions. Primary astrocytes (Lonza, Walkersville, Md.; ABM™ Basal Media with AGM™ SingleQuots™ Supplement Pack), fibroblast (ATCC; Fibroblast Basal Medium (ATCC© PCS-201-030™) with Fibroblast Growth Kit-Serum-free (ATCC© PCS-201-040™)), airway epithelial cell (ATCC; Airway Epithelial Cell Basal Medium (ATCC© PCS-300-030™) with Bronchial Epithelial Cell Growth Kit (ATCC© PCS-300-040™)), renal proximal tubule (ATCC; Renal Epithelial Cell Basal Medium (ATCC© PCS-400-030™) with Renal Epithelial Cell Growth Kit (ATCC© PCS-400-040™)), prostate epithelial cell (Lonza; PrEGM™ BulletKit™) and mammary epithelial cell (Lonza; MEBM™ BulletKit™) were kept in a humidified incubator at 37° C. adjusted to 5% CO2. Prostate (PC3, LNCaP, DU-145), breast (MDA-MB-231, MDA-MB-453, SK-BR-3), head and neck (A253, Detroit 562, SCC-25), melanoma (SK-Mel-3, SK-Mel-1, RPMI-7951), pancreatic (CfPAC-1, BxPC3, SW1990), lung (A549, NCI-H1299, NCI-H1437) and liver (SNU-475, SK-HEP-1, SNU-387) cancer cell lines were obtained from ATCC and cultured in their respective media (prostate cells: RPMI-1640, MDA-MB-231: RPMI-1640, MDA-MB-453: Leibovitz's L-15, SK-BR-3: McCoy's 5a, A253: McCoy's 5a, Detroit 562: EMEM, SCC-25: DMEM, SK-Mel-3: McCoy's 5a, SK-Mel-1: EMEM, RPMI-7951: EMEM), CfPAC-1: IMDM, BxPC3: RPMI-1640, SW1990: Leibovitz's L-15), A549: F-12K, NCI-H1299: RPMI-1640, NCI-H1437: RPMI-1640, SNU-475: RPMI-1640, SK-HEP-1: EMEM, SNU-387: RPMI-1640. All media were supplemented with 10% (vol/vol) filtered fetal bovine serum (FBS, Invitrogen, Carlsbad, Calif.), 1% penicillin/streptomycin (Invitrogen) and maintained in a humidified incubator at 37° C. with 5% CO2 except for MDA-MB-453 and SW1990 grown at 37° C. without CO2 control. Wild type (ATCC) and C342T XPB knock-in cells (named T7115) of Human Embryonic Kidney 293T (HEK293T), HeLa (ATCC) were cultured in DMEM (GIBCO) with 10% (vol/vol) filtered fetal bovine serum (FBS, Invitrogen, Carlsbad, Calif.), 1% penicillin/streptomycin (Invitrogen).
as §1

Another data set has as its target T1, XPB (Homo sapiens, UniProt P19447).
T1 construct: spironolactone induces the degradation of endogenous XPB in cells; endogenous in cells
The data set is described as follows: XPB degradation in cells, western blot. Type of data set: cell-based. Particulars: 10 mM SP (so in the source). The procedure: (§2) Western blot analysis. Whole cell lysates were prepared by adding lysis buffer [4% SDS, 20% glycerol, 10% 2-mercaptoethanol, 0.004% bromophenol blue, 0.125 M Tris-HCl (pH 6.8)] to the cell pellets for 30 minutes in ice followed by centrifugation at 12,000×g for 10 minutes then boiling for 5 minutes. For isolation of cytosolic and mitochondrial fractions of cytochrome C, cell pellets were resuspended in CLAMI buffer (250 mM sucrose, 70 mM KCl, […] digitonin in 1×PBS, protease inhibitor cocktail (1 tablet/10 ml CLAMI buffer)) then incubated on ice for 5 minutes. After centrifugation at 12,000×g for 5 minutes at 4° C., supernatant (cytoplasmic fraction) was collected and the pellet resuspended in lysis buffer as described above. Proteins were then separated by SDS-PAGE and transferred to nitrocellulose membranes (Bio-Rad). […] Antibody-protein complexes were detected using enhanced chemiluminescence (ECL) immunoblotting detection reagent (EMD Millipore).

The test system of a further data set is HeLa cells. As to the kind of experiment: Apoptosis signaling in HeLa cells (nuclear fragmentation, cytochrome c, caspase 3, PARP1). The class given is cell-based, human. The settings on record: co-treatment with higher concentrations of SP. The procedure:
(§3) Western blot analysis. Whole cell lysates were prepared by adding lysis buffer [4% SDS, 20% glycerol, 10% 2-mercaptoethanol, 0.004% bromophenol blue, 0.125 M Tris-HCl (pH 6.8)] to the cell pellets for 30 minutes in ice followed by centrifugation at 12,000×g for 10 minutes then boiling for 5 minutes. For isolation of cytosolic and mitochondrial fractions of cytochrome C, cell pellets were resuspended in CLAMI buffer (250 mM sucrose, 70 mM KCl, […] digitonin in 1×PBS, protease inhibitor cocktail (1 tablet/10 ml CLAMI buffer)) then incubated on ice for 5 minutes. After centrifugation at 12,000×g for 5 minutes at 4° C., supernatant (cytoplasmic fraction) was collected and the pellet resuspended in lysis buffer as described above. Proteins were then separated by SDS-PAGE and transferred to nitrocellulose membranes (Bio-Rad). After blocking at room temperature for 1 h, membranes were incubated at 4′C overnight with the primary antibodies including anti-Rpb1 (Santa Cruz Biotechnology), anti-XPB (Biotechne), anti-Actin (Developmental Studies Hybridoma Bank), anti-GAPDH (Santa Cruz Biotechnology), anti-cytochrome C (Santa Cruz Biotechnology), anti-PARP1 (Santa Cruz Biotechnology), anti-cleaved caspase 3 (Cell Signaling Technology), anti-VDAC (ProteinTech), anti-HIF-1[…] (BD sciences), and anti-GLUT1 (Santa Cruz Biotechnology) antibodies followed by incubation with horseradish peroxidase-conjugated anti-mouse or anti-rabbit IgG (GE Healthcare) at room temperature for 2 hours. Antibody-protein complexes were detected using enhanced chemiluminescence (ECL) immunoblotting detection reagent (EMD Millipore).
Immunocytochemistry and cytochemistry. HeLa or PC3 cells (2×10^5) were seeded on a MatTek glass bottom culture dish (Fisher Scientific, Pittsburgh, Pa., USA) and allowed to adhere for 24 h. Cells were then treated with either DMSO or drugs for 6 or 24 h then fixed with 4% paraformaldehyde, permeabilized using 1×PBS with 0.5% triton X 100 then probed for endogenous RNA Polymerase II catalytic subunit Rpb1 or HIF-1α using anti-RNAPII (Santa Cruz Biotechnology) and anti-HIF-1α (BD sciences) antibodies, respectively. Detection was then done using anti-mouse Alexa Fluor 488 (Invitrogen). For nuclear staining, fixed and permeabilized cells were incubated in DAPI (ThermoFisher) or Hoechst 33258 (Sigma) for 30 minutes prior to imaging. Glucose uptake was monitored by incubating cells in 200 μM 2-NBDG (ThermoFisher) for 6 hours prior to fixation. Fluorescence was observed under the Nikon Eclipse TE200 Inverted microscope (Nikon Instruments Inc., Melville, N.Y., USA). ImageJ software (NIH, Bethesda, Md., USA; http://imagej.nih.gov/ij/index.html) was used to measure intracellular protein levels in immuno-cytochemistry samples (Li et al. (2015) Toxicological Sciences: an Official Journal of the Society of Toxicology 143:196-208). Rpb1 levels were measured using the MEASURE feature of ImageJ where all the background signals were subtracted from the intergrated density of nuclear Rpb1.

Data set [2] deals with RPB1 (catalytic subunit of RNAPII). As to the kind of experiment: RPB1 (RNAPII) degradation in HeLa cells, immunostaining and western blot. Type of data set: cell-based, human. The procedure:
as §3
(§4) Immunocytochemistry and cytochemistry. […] Glucose uptake was monitored by incubating cells in 200 μM 2-NBDG (ThermoFisher) for 6 hours prior to fixation. Fluorescence was observed under the Nikon Eclipse TE200 Inverted microscope (Nikon Instruments Inc., Melville, N.Y., USA). […] Rpb1 levels were measured using the MEASURE feature of ImageJ where all the background signals were subtracted from the intergrated density of nuclear Rpb1.

Data set [3] relates to RPB1 (RNAPII) in PC3 cells. As to the kind of experiment: RPB1 degradation in PC3 cells under hypoxia, immunocytochemistry and western blot. The class given is cell-based, human. The settings on record: PC3, hypoxic (1% O2), 10 mM WZB117 plus 3 mM compound 1 (so in the source); μM). The procedure:
as §2, §4
A general note: Immunoblotting shows a protein as a band on a membrane.

[4] abbreviates: lethal case dosed with 18 mg/m2 F60008.

T1 sequence (P19447 whole entry): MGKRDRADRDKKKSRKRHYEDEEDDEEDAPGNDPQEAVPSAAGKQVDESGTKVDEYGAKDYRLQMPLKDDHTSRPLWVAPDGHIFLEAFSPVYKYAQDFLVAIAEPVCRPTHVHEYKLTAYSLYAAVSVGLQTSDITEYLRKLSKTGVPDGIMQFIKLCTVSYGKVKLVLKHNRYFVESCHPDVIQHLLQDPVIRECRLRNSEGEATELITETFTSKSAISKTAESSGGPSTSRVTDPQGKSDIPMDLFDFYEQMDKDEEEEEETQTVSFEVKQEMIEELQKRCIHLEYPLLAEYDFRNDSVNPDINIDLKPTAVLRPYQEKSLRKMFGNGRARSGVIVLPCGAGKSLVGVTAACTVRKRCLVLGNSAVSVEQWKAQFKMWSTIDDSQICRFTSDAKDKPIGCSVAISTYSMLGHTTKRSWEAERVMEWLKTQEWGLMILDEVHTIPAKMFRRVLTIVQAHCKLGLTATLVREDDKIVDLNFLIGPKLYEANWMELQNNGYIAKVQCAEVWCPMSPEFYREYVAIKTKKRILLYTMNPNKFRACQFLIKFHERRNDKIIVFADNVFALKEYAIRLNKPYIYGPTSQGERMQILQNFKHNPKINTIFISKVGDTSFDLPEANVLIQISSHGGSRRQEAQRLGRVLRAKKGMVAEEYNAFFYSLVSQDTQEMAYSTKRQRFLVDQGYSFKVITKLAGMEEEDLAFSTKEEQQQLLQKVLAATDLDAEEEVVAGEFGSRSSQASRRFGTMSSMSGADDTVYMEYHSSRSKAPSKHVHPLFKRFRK

As to `CC(C)C12OC1C1OC13C1(C)CCC4=C(COC4=O)C1CC1OC13C2OC(=O)CCC(=O)O` (stereo not drawn) [Compound F60008, triptolide-succinate], in data set [1] (administered with <12 mg/m^2 F60008), the lethality in patients result is reported as “no lethality was observed in 18 of the 20 patients”. Further, the “lethality in early human clinical study” value in data set [1] (highest dose of therapy) is on record as “lethal to two patients”. For the same compound, in data set [1] (setting [4]), the Maximum serum levels is 1,361 ng/mL and the “Maximum serum levels (molar)” value is about 2.96 mM.

On to `COc1cccc2c1C(=O)c1c(O)c3c(c(O)c1C2=O)C[C@@](O)(C(=O)CO)C[C@@H]3O[C@H]1C[C@H](N)[C@H](O)[C@H](C)O1` [doxorubicin], for which the “change of potency under hypoxia” value with PC3 cells is listed as “decreased”.

In the case of `CC(C)[C@]12O[C@H]1[C@@H]1O[C@]13[C@]1(O[C@H]1C[C@H]1C4=C(CC[C@@]13C)C(=O)OC4)[C@@H]2OC(=O)CCC(=O)OCC1OC(O)C(O)C(O)[C@@H]1O` (stereo partly drawn) [Compound 8], the IC50 in the data set with HEK 293T cells amounted to 244 ± 0.81 nM.

On to `CO[C@H]1OC(COC(=O)CCC(=O)O[C@@H]2[C@@]3(C(C)C)O[C@H]3[C@@H]3O[C@]34[C@]23O[C@H]3C[C@H]2C3=C(CC[C@@]24C)C(=O)OC3)[C@@H](O)C(O)C1O` (stereo partly drawn) [Compound 9], for which the IC50 with HEK 293T cells was found to be 395 ± 0.523 nM.

On to `CC(=O)S[C@@H]1CC2=CC(=O)CC[C@]2(C)[C@H]2CC[C@@]3(C)[C@@H](CC[C@@]34CCC(=O)O4)[C@H]12` [spironolactone], for which the “degradation of XPB” value on XPB was “caused degradation of the majority of XPB”. Also, the “effect on compound 1-induced PARP1 cleavage” value with HeLa cells is on record as “prevented PARP1 cleavage”. The “endogenous RNAPII (RPB1) level” value in data set [2] (10 mM spironolactone alone (so in the source); 10 μM)) is on record as “do not affect protein levels”. Further, in data set [2] (pre-treatment with 10 mM spironolactone (so in the source), then 1 mM compound 1), the “rescue of RNAPII from compound 1-induced degradation” value is on record as “rescues endogenous RNAPII”.

Turning to `O=C(Oc1cccc(F)c1OC(=O)c1cccc(O)c1)c1cccc(O)c1` [WZB117, reference compound], in data set [3], the “effect on compound 1-induced RNAPII degradation” value was “abolished the rapid degradation of endogenous RNAPII”.

Consider `CC(C)[C@]12O[C@H]1[C@@H]1O[C@]13[C@]1(O[C@H]1C[C@H]1C4=C(CC[C@@]13C)C(=O)OC4)[C@@H]2OC(=O)CCCC(=O)O[C@H]1OC(CO)[C@@H](O)C(O)C1O` (stereo partly drawn) [Compound 7], for which the IC50 in the data set on HEK 293T cells came out at 735 ± 1.11 nM.

As for `CC(C)[C@]12O[C@H]1[C@@H]1O[C@]13[C@]1(O[C@H]1C[C@H]1C4=C(CC[C@@]13C)C(=O)OC4)[C@@H]2OC(=O)c1ccccc1C(=O)O[C@@H]1OC(CO)[C@@H](O)C(O)C1O` (stereo partly drawn) [Compound 4], in the data set on HEK 293T cells, the IC50 came to 5888 ± 1.19 nM.

`CC(C)[C@]12O[C@H]1[C@@H]1O[C@]13[C@]1(O[C@H]1C[C@H]1C4=C(CC[C@@]13C)C(=O)OC4)[C@@H]2OC(=O)CCCC(=O)O[C@@H]1OC(CO)[C@@H](O)C(O)C1O` (stereo partly drawn) [Compound 6]: in the data set with HEK 293T cells, the IC50 worked out at 1134 ± 1.15 nM.

Regarding `CC(C)[C@]12O[C@H]1[C@@H]1O[C@]13[C@]1(O[C@H]1C[C@H]1C4=C(CC[C@@]13C)C(=O)OC4)[C@@H]2OC(=O)CC(C)(C)C(=O)O[C@H]1OC(CO)[C@@H](O)C(O)C1O` (stereo partly drawn) [Compound 3], the IC50 in the data set on HEK 293T cells worked out at 999 ± 0.217 nM.

For the compound `CC(C)[C@]12O[C@H]1[C@@H]1O[C@]13[C@]1(O[C@H]1C[C@H]1C4=C(CC[C@@]13C)C(=O)OC4)[C@@H]2OC(=O)c1ccccc1C(=O)O[C@H]1OC(CO)[C@@H](O)C(O)C1O` (stereo partly drawn) [Compound 5], the IC50 with HEK 293T cells amounted to 6667 ± 2.03 nM.

Regarding `CC(C)[C@]12O[C@H]1[C@@H]1O[C@]13[C@]1(O[C@H]1C[C@H]1C4=C(CC[C@@]13C)C(=O)OC4)[C@@H]2OC(=O)CC(C)(C)C(=O)O[C@@H]1OC(CO)[C@@H](O)C(O)C1O` (stereo partly drawn) [Compound 2], the IC50 with HEK 293T cells is 3305 ± 0.98 nM.
